Reference: patent US20260325685A1, “Radiopharmaceutical Compositions Targeting Carbonic Anhydrase IX and Uses Thereof” (RayzeBio, Inc., priority 2023, published 2026)
pKd: −log10 of the molar value. Where two headings read alike, the source gives them in different places.

Legend:
human CA-XII = biological target: T1, human CA-XII (Homo sapiens, UniProt O43570); assay: Surface Plasmon Resonance (SPR) binding kinetics to recombinant human CA-XII (Biacore 8K, single-cycle kinetics, 1:1 binding model)
T1 construct: purchased Creative BioMart CA12-261H
In short: (§1)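 First, ligand at 10 μg/mL was captured on streptavidin to 1200-1800 RU, with 180 s injection for CA-IX and 75 s for CA-XII. Next, compound (100-0.39 nM, 9 levels) in PBS-P+ with 1% DMSO was injected. Association lasted 120 s and dissociation 1200 s at 25° C.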

human CA-IX = biological target: T2, human CA-IX (Homo sapiens, UniProt Q16790); assay: Surface Plasmon Resonance (SPR) binding kinetics to recombinant human CA-IX (Biacore 8K, single-cycle kinetics, 1:1 binding model)
T2 construct: purchased Acro CA9-H82E3
In short: as §1

[1] = Chelated Metal: Lu-175, 25° C., pH 7.4, read-out: CAXII KD
[2] = Chelated Metal: Lu-175; SPR, 25° C., pH 7.4; read-out: CAIX KD
[3] = read-out: CAXII KD, Chelated Metal: Lu-175, 25° C., pH 7.4
[4] = read-out: CAIX KD; Chelated Metal: Lu-175; SPR, 25° C., pH 7.4
[5] = Chelated Metal: Cu (cold), 25° C., pH 7.4, read-out: CAXII KD
[6] = Chelated Metal: Cu (cold); SPR, 25° C., pH 7.4; read-out: CAIX KD
[7] = Chelated Metal: None, 25° C., pH 7.4, read-out: CAXII KD
[8] = Chelated Metal: None; SPR, 25° C., pH 7.4; read-out: CAIX KD
[9] = KD ratio CAXII/CAIX; Chelated Metal: None

T1 sequence (O43570 25-354): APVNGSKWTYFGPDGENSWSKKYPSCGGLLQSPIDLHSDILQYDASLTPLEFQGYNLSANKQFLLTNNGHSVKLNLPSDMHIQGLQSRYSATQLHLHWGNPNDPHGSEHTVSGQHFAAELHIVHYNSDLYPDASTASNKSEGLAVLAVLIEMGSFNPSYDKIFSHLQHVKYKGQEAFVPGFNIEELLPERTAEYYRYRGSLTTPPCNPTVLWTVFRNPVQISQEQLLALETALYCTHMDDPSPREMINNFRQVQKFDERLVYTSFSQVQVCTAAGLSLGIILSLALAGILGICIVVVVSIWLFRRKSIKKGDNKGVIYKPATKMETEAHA

Row | SMILES | pKd (human CA-XII; [1]) | pKd (human CA-IX; [2]) | other results
1 | CC(CC(=O)N1CCC(C(N)=O)(C(=O)NCC(=O)N[C@@H](CCCCn2cc(CCCC(=O)Nc3nnc(S(N)(=O)=O)s3)nn2)C(=O)NCCOCCOCCNC(=O)CN2CCN(CC(=O)O)CCN(CC(=O)O)CCN(CC(=O)O)CC2)CC1)(c1ccc(O)cc1)c1ccc(O)cc1.[Lu+3] [Compound 102.2] | < 8.00 | 8.00 to 8.60 | –
2 | NS(=O)(=O)c1nnc(NC(=O)C23CC(c4cn(CCNC(=O)[C@@H]5CN(C(=O)CN6CCN(CC(=O)O)CCN(CC(=O)O)CCN(CC(=O)O)CC6)CCN5C(=O)C[C@H](NC(=O)C[C@H](NC(=O)CC5CC6(CCC6)C5)C(=O)O)C(=O)O)nn4)(C2)C3)s1.[Lu+3] [Compound 109.18] | 8.60 to 9.00 | > 9.00 | –
3 | NS(=O)(=O)c1nnc(NC(=O)C23CCC(c4cn(CCNC(=O)[C@@H]5CN(C(=O)CN6CCN(CC(=O)O)CCN(CC(=O)O)CCN(CC(=O)O)CC6)CCN5C(=O)CC[C@H](NC(=O)C[C@H](NCc5ccccc5)C(=O)O)C(=O)O)nn4)(CC2)CC3)s1.[Lu+3] [Compound 110] | – | – | pKd (human CA-XII; [3]): > 9.00; pKd (human CA-IX; [4]): > 9.00
4 | CC(C)(CCCC(=O)N1CCC(C(N)=O)(C(=O)NCC(=O)N2CCN(C(=O)CN3CCN(CC(=O)O)CCN(CC(=O)O)CCN(CC(=O)O)CC3)C[C@H]2C(=O)NCCn2cc(C34CC(C(=O)Nc5nnc(S(N)(=O)=O)s5)(C3)C4)nn2)CC1)c1ccc(O)cc1.[Lu+3] [Compound 133] | – | – | pKd (human CA-XII; [3]): < 8.00; pKd (human CA-IX; [4]): > 9.00
5 | CC(CCC(=O)N[C@@H](CC(=O)N[C@@H](CNC(=O)N1CCN(C(=O)CN2CCN(CC(=O)O)CCN(CC(=O)O)CCN(CC(=O)O)CC2)C[C@H]1C(=O)NCCn1cc(C23CC(C(=O)Nc4nnc(S(N)(=O)=O)s4)(C2)C3)nn1)C(=O)O)C(=O)O)(c1ccc(O)cc1)c1ccc(O)cc1.[Lu+3] [Compound 107.55] | 8.00 to 8.60 | > 9.00 | –
6 | CC(CCCC(=O)N1CCOC[C@H]1C(=O)N[C@@H](CC(=O)N1CCN(C(=O)CN2CCN(CC(=O)O)CCN(CC(=O)O)CC2)C[C@@H]1C(=O)NCCn1cc(C23CC(C(=O)Nc4nnc(S(N)(=O)=O)s4)(C2)C3)nn1)C(=O)O)(c1ccc(O)cc1)c1ccc(O)cc1.[Cu+2] [Compound 126.3] | – | – | pKd (human CA-XII; [5]): < 8.00; pKd (human CA-IX; [6]): > 9.00
7 | CC(CCC(=O)N[C@@H](CC(=O)N[C@@H](CC(=O)N[C@@H](CCCCn1cc([C@H]2CC[C@H](C(=O)Nc3nnc(S(N)(=O)=O)s3)CC2)nn1)C(=O)NCCOCCOCCNC(=O)CN1CCN(CC(=O)O)CCN(CC(=O)O)CCN(CC(=O)O)CC1)C(=O)O)C(=O)O)(c1ccc(O)cc1)c1ccc(O)cc1.[Lu+3] [Compound 100.4] | 8.00 to 8.60 | > 9.00 | –
8 | NS(=O)(=O)c1nnc(NC(=O)C23CCC(c4cn(CCNC(=O)[C@@H]5CN(C(=O)CN6CCN(CC(=O)O)CCN(CC(=O)O)CCN(CC(=O)O)CC6)CCN5C(=O)CC[C@H](NC(=O)C[C@H](NC(=O)CCCc5ccc(O)cc5)C(=O)O)C(=O)O)nn4)(CC2)CC3)s1.[Lu+3] [Compound 109.42] | > 9.00 | > 9.00 | –
9 | CC(CCNC(=O)c1cnc(N[C@@H](CC(=O)N2CCN(C(=O)CN3CCN(CC(=O)O)CCN(CC(=O)O)CCN(CC(=O)O)CC3)C[C@@H]2C(=O)NCCn2cc(C34CC(C(=O)Nc5nnc(S(N)(=O)=O)s5)(C3)C4)nn2)C(=O)O)nc1)(c1ccc(O)cc1)c1ccc(O)cc1.[Lu+3] [Compound 111.1] | < 8.00 | 8.60 to 9.00 | –
10 | CC(CCC(=O)N[C@@H](CC(=O)N[C@@H](CC(=O)N[C@@H](CCCCn1cc(C23CCC(C(=O)Nc4nnc(S(N)(=O)=O)s4)(CC2)C3)nn1)C(=O)NCC1(C(=O)O)CCN(C(=O)CN2CCN(CC(=O)O)CCN(CC(=O)O)CCN(CC(=O)O)CC2)CC1)C(=O)O)C(=O)O)(c1ccc(O)cc1)c1ccc(O)cc1.[Lu+3] [Compound 100.18] | > 9.00 | > 9.00 | –
11 | NCCNC(=O)c1cnc(N[C@@H](CC(=O)N2CCN(C(=O)CN3CCN(CC(=O)O)CCN(CC(=O)O)CCN(CC(=O)O)CC3)C[C@H]2C(=O)NCCn2cc(C34CC(C(=O)Nc5nnc(S(N)(=O)=O)s5)(C3)C4)nn2)C(=O)O)nc1.[Lu+3] [Compound 111.12] | < 8.00 | 8.00 to 8.60 | –
12 | CC(CCCC(=O)N1CCC(CN)(C(=O)NCC(=O)N2CCN(C(=O)CN3CCN(CC(=O)O)CCN(CC(=O)O)CCN(CC(=O)O)CC3)C[C@@H]2C(=O)NCCn2cc(C34CC(C(=O)Nc5nnc(S(N)(=O)=O)s5)(C3)C4)nn2)CC1)(c1ccc(O)cc1)c1ccc(O)cc1.[Lu+3] [Compound 107.51] | < 8.00 | 8.60 to 9.00 | –
13 | CC(CCCC(=O)N1CCC(C(N)=O)(C(=O)NCC(=O)N2CCN(C(=O)CC[C@H](C(=O)O)N3CCN(CC(=O)O)CCN(CC(=O)O)CCN(CC(=O)O)CC3)C[C@H]2C(=O)NCCn2cc(C34CC(C(=O)Nc5nnc(S(N)(=O)=O)s5)(C3)C4)nn2)CC1)(c1ccc(O)c(F)c1)c1ccc(O)c(F)c1.[Lu+3] [Compound 127.8] | < 8.00 | > 9.00 | –
14 | NS(=O)(=O)c1nnc(NC(=O)C23CC(c4cn(CCNC(=O)[C@@H]5CN(C(=O)CN6CCN(CC(=O)O)CCN(CC(=O)O)CCN(CC(=O)O)CC6)CCN5C(=O)C[C@H](NC(=O)C[C@H](NC(=O)c5coc(C6CC6)n5)C(=O)O)C(=O)O)nn4)(C2)C3)s1.[Lu+3] [Compound 109.8] | 8.00 to 8.60 | 8.60 to 9.00 | –
15 | CC(CCCC(=O)N1CCC(C(=O)O)(C(=O)NCC(=O)N2CCN(C(=O)CN3CCN(CC(=O)O)CCN(CC(=O)O)CCN(CC(=O)O)CC3)C[C@@H]2C(=O)NCCn2cc(C34CCC(C(=O)Nc5nnc(S(N)(=O)=O)s5)(C3)C4)nn2)CC1)(c1ccc(O)cc1)c1ccc(O)cc1.[Lu+3] [Compound 107.24] | 8.00 to 8.60 | 8.60 to 9.00 | –
16 | NS(=O)(=O)c1nnc(NC(=O)C23CC(c4cn(CCNC(=O)[C@@H]5CN(C(=O)CN6CCN(CC(=O)O)CCN(CC(=O)O)CCN(CC(=O)O)CC6)CCN5C(=O)CNC(=O)C5(C(=O)O)CCN(C(=O)Cc6c[nH]nc6C(F)(F)F)CC5)nn4)(C2)C3)s1.[Lu+3] [Compound 112.14] | < 8.00 | 8.00 to 8.60 | –
17 | CC(C)(C)c1ccc(C(=O)N[C@@H](CC(=O)N[C@@H](CC(=O)N2CCN(C(=O)CN3CCN(CC(=O)O)CCN(CC(=O)O)CCN(CC(=O)O)CC3)C[C@H]2C(=O)NCCn2cc(C34CC(C(=O)Nc5nnc(S(N)(=O)=O)s5)(C3)C4)nn2)C(=O)O)C(=O)O)cc1.[Lu+3] [Compound 109.26] | 8.00 to 8.60 | 8.60 to 9.00 | –
18 | NS(=O)(=O)c1nnc(NC(=O)C23CC(c4cn(CCNC(=O)[C@@H]5CN(C(=O)CN6CCN(CC(=O)O)CCN(CC(=O)O)CCN(CC(=O)O)CC6)CCN5C(=O)C[C@H](NC(=O)C[C@H](NC(=O)c5coc(C(F)(F)F)n5)C(=O)O)C(=O)O)nn4)(C2)C3)s1.[Lu+3] [Compound 109.17] | < 8.00 | 8.00 to 8.60 | –
19 | CC(CCCC(=O)N1CCC(C(N)=O)(C(=O)NCC(=O)NC2(C(=O)NCCn3cc(C45CC(C(=O)Nc6nnc(S(N)(=O)=O)s6)(C4)C5)nn3)CCN(C(=O)CN3CC4(C3)CN(C(=O)CN3CCN(CC(=O)O)CCN(CC(=O)O)CCN(CC(=O)O)CC3)C4)CC2)CC1)(c1ccc(O)cc1)c1ccc(O)cc1.[Lu+3] [Compound 129.7] | < 8.00 | > 9.00 | –
20 | CC(CCC(=O)N[C@@H](CC(=O)N[C@@H](CC(=O)N[C@@H](CCCn1cc(C23CCC(C(=O)Nc4nnc(S(N)(=O)=O)s4)(CC2)C3)nn1)C(=O)NCCOCCOCCNC(=O)CN1CCN(CC(=O)O)CCN(CC(=O)O)CCN(CC(=O)O)CC1)C(=O)O)C(=O)O)(c1ccc(O)cc1)c1ccc(O)cc1.[Lu+3] [Compound 100.5] | > 9.00 | > 9.00 | –
21 | CC(CCC(=O)N[C@@H](CC(=O)N[C@@H](CC(=O)NC1(CCCCn2cc(CCCC(=O)Nc3nnc(S(N)(=O)=O)s3)nn2)CCN(C(=O)OCCOCCNC(=O)CN2CCN(CC(=O)O)CCN(CC(=O)O)CCN(CC(=O)O)CC2)CC1)C(=O)O)C(=O)O)(c1ccc(O)cc1)c1ccc(O)cc1.[Lu+3] [Compound 116.2] | 8.00 to 8.60 | 8.60 to 9.00 | –
22 | CC(CCC(=O)N[C@@H](CC(=O)N[C@@H](CC(=O)N1CCN(C(=S)Nc2ccc3c(c2)OCCN(Cc2cccc(C(=O)O)n2)CCOCCOCCN(Cc2cccc(C(=O)O)n2)CCO3)C[C@H]1C(=O)NCCn1cc(C23CC(C(=O)Nc4nnc(S(N)(=O)=O)s4)(C2)C3)nn1)C(=O)O)C(=O)O)(c1ccc(O)cc1)c1ccc(O)cc1 [Compound 130] | – | – | pKd (human CA-XII; [7]): 8.00 to 8.60; pKd (human CA-IX; [8]): > 9.00; Ratio (CAXII/CAIX) (human CA-IX; [9]): *** (10 < *** ≤ 50)
23 | CC(CCC(=O)N[C@@H](CC(=O)N[C@@H](CC(=O)N1CCN(C(=O)CN2CCN(CC(=O)O)CCN(CC(=O)O)CCN(CC(=O)O)CC2)C[C@H]1CCCCn1cc(C23CCC(C(=O)Nc4nnc(S(N)(=O)=O)s4)(CC2)C3)nn1)C(=O)O)C(=O)O)(c1ccc(O)cc1)c1ccc(O)cc1 [Compound 104.1] | – | – | pKd (human CA-XII; [7]): > 9.00; pKd (human CA-IX; [8]): > 9.00; Ratio (CAXII/CAIX) (human CA-IX; [9]): * (1 < * < 5)
24 | CC(CCCC(=O)N1CCC2(CC2)C[C@H]1C(=O)N[C@@H](CC(=O)N1CCN(C(=O)CN2CCN(CC(=O)O)CCN(CC(=O)O)CCN(CC(=O)O)CC2)C[C@@H]1C(=O)NCCn1cc(C23CC(C(=O)Nc4nnc(S(N)(=O)=O)s4)(C2)C3)nn1)C(=O)O)(c1ccc(O)cc1)c1ccc(O)cc1.[Lu+3] [Compound 107.33] | < 8.00 | > 9.00 | –
25 | CC(CCCC(=O)N1CCC(C(N)=O)(C(=O)NCC(=O)N2CCN(C(=O)CN3CCN(CC(=O)O)CCN(CC(=O)O)CC3)C[C@@H]2C(=O)NCCn2cc(C34CC(C(=O)Nc5nnc(S(N)(=O)=O)s5)(C3)C4)nn2)CC1)(c1ccc(O)cc1)c1ccc(O)cc1.[Cu+2] [Compound 126.1] | – | – | pKd (human CA-XII; [5]): < 8.00; pKd (human CA-IX; [6]): > 9.00
